Assays:
H441 p-ERK = test: Cell p-ERK assay (HTRF), NCI-H441 cells; format: cell-based, human; settings: NCI-H441 cells (KRAS G12V), 3 h incubation
Method: (§1) The cells were digested with trypsin (containing EDTA), collected in their corresponding complete media, and counted. The density of the cell suspensions was adjusted with their corresponding complete media, and 10000 AsPC-1 cells or 20000 NCI-H441 cells per well were seeded into a 96-well cell culture plate, with the volume of the medium in each well being 80 µL. The cell culture plate was incubated in an incubator at 37 °C with 5% CO2 overnight. […] On the day after cell seeding, 20 µL of the 5× compound stock solution was added to each cell culture well. […] In addition to the compound-treated wells described above, cell-containing DMSO control wells were also set. A complete medium containing 0.5% DMSO was added at 20 µL/well. After the mixture was well mixed, the culture plate was incubated in the incubator at 37 °C with 5% CO2 for another 3 h. The medium was then removed from the culture wells, and 50 µL of cell lysis buffer (from Advance ERK phospho-T202/Y204 kit) was added to each well. The mixture was well mixed and incubated for 30 min. Then, 16 µL of the mixture was transferred to a white-bottomed, opaque 96-well assay plate, and separately, 16 µL of cell lysis buffer was added to additional wells (serving as blank wells) in the assay plate. After the transfer was completed, 4 µL of p-ERK HTRF antibody mixture (from Advance ERK phospho-T202/Y204 kit) was added to each well of the assay plate, followed by a 4-hour incubation. […] Using an XLfit software, the IR (%) values were plotted against the logarithm of the compound concentrations, and the dose-response curves were fitted using the four-parameter method to calculate the IC50 values.

AsPC-1 p-ERK = test: Cell p-ERK assay (HTRF), AsPC-1 cells; format: cell-based, human; settings: Homo sapiens, ASPC1, 3 h, read-out: AsPC-1 p-ERK IC50(nM)
Method: as §1

Structure (SMILES)	IC50 (H441 p-ERK; Homo sapiens) [nM]	IC50 (AsPC-1 p-ERK) [nM]	IC50 (H441 p-ERK) [nM]
CCn1c(-c2cc(C#CCN3CCS(=O)(=O)CC3)cnc2[C@H](C)OC)c2c3cc(ccc31)-c1csc(n1)C[C@H](NC(=O)[C@@H](NC)C(C)C)C(=O)N1CCC[C@H](N1)C(=O)OCC(C)(C)C2 (atropisomer, axis not shown) [Compound Z4, (2S)-N-((6^3S,4S,Z)-1^2-(5-(3-(1,1-dioxidothiomorpholin-4-yl)prop-1-yn-1-yl)-2-((S)-1-methoxyethyl)pyridin-3-yl)-1^1-ethyl-10,10-dimethyl-5,7-dioxo-6^1,6^2,6^3,6^4,6^5, 6^6-hexahydro-1^1H-8-oxa-2(4,2)-thiazola-1(5,3)-indola-6(1,3)-pyridazinacycloundecaphane-4-yl)-3-methyl-2-(methylamino)butanamide]	0.53	0.52	–
CCn1c(-c2cc(C#CCN3CCCOCC3)cnc2[C@H](C)OC)c2c3cc(ccc31)-c1csc(n1)C[C@H](NC1=NOC3(CCOCC3)C1)C(=O)N1CCC[C@H](N1)C(=O)OCC(C)(C)C2 (atropisomer, axis not shown) [Compound Z175, (6^3S,4S,Z)-1^2-(5-(3-(1,4-oxazepan-4-yl)prop-1-yn-1-yl)-2-((S)-1-methoxyethyl)pyridin-3-yl)-4-((1,8-dioxa-2-azaspiro[4.5]dec-2-en-3-yl)amino)-1^1-ethyl-10,10-dimethyl-6^1,6^2,6^3,6^4,6^5,6^6-hexahydro-1^1H-8-oxa-2(4,2)-thiazola-1(5,3)-indola-6(1,3)-pyridazinacycloundecaphane-5,7-dione]	2.61	6.03	–
CCn1c(-c2cc(C#CCN3CCS(=O)(=O)CC3)cnc2[C@H](C)OC)c2c3cc(ccc31)-c1cc(N)cc(c1)C[C@H](NC(=O)C(C(C)C)N(C)C(=O)[C@@H]1CN(C(=O)OC)C[C@@H]1C)C(=O)N1CCC[C@H](N1)C(=O)OCC(C)(C)C2 (atropisomer, axis not shown; (Ra)) [Compound Z62]	–	–	3.19
CCn1c(-c2cc(C#CCN3CCCOCC3)cnc2[C@H](C)OC)c2c3cc(ccc31)-c1csc(n1)C[C@H](NC1=NOC(C)(C)C1)C(=O)N1CCC[C@H](N1)C(=O)OCC(C)(C)C2 (atropisomer, axis not shown; (Ra)) [Compound Z172-1, (6^3S,4S,Z)-(Ra)-1^2-(5-(3-(1,4-oxazepan-4-yl)prop-1-yn-1-yl)-2-((5)-1-methoxyethyl)pyridin-3-yl)-1^1-ethyl-10,10-dimethyl-4-((5,5-dimethyl-4,5-dihydroisoxazol-3-yl)amino)-6^1,6^2,6^3,6^4,6^5,6^6-hexahydro-1^1H-8-oxa-2(4,2)-thiazola-1(5,3)-indola-6(1,3)-pyridazinacycloundecaphane-5,7-dione]	2.17	5.8	–

More lines, in order of falling IC50 (H441 p-ERK; Homo sapiens), values ahead:

IC50 (H441 p-ERK; Homo sapiens) [nM]	IC50 (AsPC-1 p-ERK) [nM]	IC50 (H441 p-ERK) [nM]	Structure (SMILES)
3.03	–	–	CCn1c(-c2cc(C#CCN3CCCOCC3)cnc2[C@H](C)OC)c2c3cc(ccc31)-c1csc(n1)C[C@H](NC1=NOC(C)(CC)C1)C(=O)N1CCC[C@H](N1)C(=O)OCC(C)(C)C2 (atropisomer, axis not shown) [Compound Z173, (6^3S,4S,Z)-1^2-(5-(3-(1,4-oxazepan-4-yl)prop-1-yn-1-yl)-2-((S)-1-methoxyethyl)pyridin-3-yl)-1^1-ethyl-10,10-dimethyl-4-((5-ethyl-5-methyl-4,5-dihydroisoxazol-3-yl)amino)-6^1,6^2,6^3,6^4,6^5,6^6-hexahydro-1^1H-8-oxa-2(4,2)-thiazola-1(5,3)-indola-6(1,3)-pyridazinacycloundecaphane-5,7-dione]
2.39	–	–	COCCn1c(-c2cc(C#CCN3CCN(C(=O)CO)CC3)cnc2[C@H](C)OC)c2c3cc(ccc31)-c1csc(n1)C[C@H](NC(=O)[C@H]1[C@@H]3COC[C@@H]31)C(=O)N1CCC[C@H](N1)C(=O)OCC(C)(C)C2 (atropisomer, axis not shown) [Compound Z31, (1R,5S,6r)-N-((6^3S,4S,Z)-1^2-(5-(3-(4-(2-hydroxyacetyl)piperazin-1-yl)prop-1-yn-1-yl)-2-((S)-1-methoxyethyl)pyridin-3-yl)-1^1-(methoxyethyl)-10,10-dimethyl-5,7-dioxo-6^1,6^2,6^3,6^4,6^5,6^6-hexahydro-1^1H-8-oxa-2(4,2)-thiazola-1(5,3)-indola-6(1,3)-pyridazinacycloundecaphane-4-yl)-3-oxabicyclo[3.1.0]hexane-6-carboxamide]
1.43	–	–	CCn1c(-c2cc(C#CCN3CCCOCC3)cnc2[C@H](C)OC)c2c3cc(ccc31)-c1csc(n1)C[C@H](NC1=NOC(C)(C(C)C)C1)C(=O)N1CCC[C@H](N1)C(=O)OCC(C)(C)C2 (atropisomer, axis not shown; (Ra)) [Compound Z280, (6^3S,4S,Z)-(Ra)-1^2-(5-(3-(1,4-oxazepan-4-yl)prop-1-yn-1-yl)-2-((S)-1-methoxyethyl)pyridin-3-yl)-1^1-ethyl-10,10-dimethyl-4-((5-isopropyl-5-methyl-4,5-dihydroisoxazol-3-yl)amino)-6^1,6^2,6^3,6^4,6^5,6^6-hexahydro-1^1H-8-oxa-2(4,2)-thiazola-1(5,3)-indola-6(1,3)-pyridazinacycloundecaphane-5,7-dione]
0.41	0.45	–	CCn1c(-c2cc(C#CCN3CCS(=O)(=O)CC3)cnc2[C@H](C)OC)c2c3cc(ccc31)-c1csc(n1)C[C@H](NC(=O)[C@@H](N)C1CCCC1)C(=O)N1CCC[C@H](N1)C(=O)OCC(C)(C)C2 (atropisomer, axis not shown; (Ra)) [Compound Z14, (2S)-2-amino-2-cyclopentyl-N-((6^3S,4S,Z)-(Ra)-1^2-(5-(3-(1,1-dioxidothiomorpholino)prop-1-yn-1-yl)-2-((S)-1-methoxyethyl)pyridin-3-yl)-1^1-ethyl-10,10-dimethyl-5,7-dioxo-6^1,6^2,6^3,6^4,6^5,6^6-hexahydro-1^1H-8-oxa-2(4,2)-thiazola-1(5,3)-indola-6(1,3)-pyridazinacycloundecaphane-4-yl)acetamide]

Source: patent EP4775582A1, “MACROCYCLIC COMPOUND AND ANTIBODY-DRUG CONJUGATE THEREOF” (Genfleet Therapeutics (Shanghai) Inc., priority 2023, dated 2025)
